How the values were obtained:
[1] = Association (partition) of the NBD amphiphiles with native membranes, NBD fluorescence; format: physicochemical, High-Five insect cells; settings: for KPW→M: aqueous phase to native membrane
Procedure: (§1) The membranes were diluted to the chosen concentration with simplified ATPase assay buffer and warmed to 37 °C. The NBD amphiphiles were added from stocks in DMSO (final DMSO 1% v/v) by squirting the required volume into the membrane solution under gentle vortex. Fluorescence intensity was measured after 15 to 30 min incubation at 37 °C using a Cary Eclipse spectrofluorimeter (Varian, Singapore). The path length of the sample container was selected to guarantee that scattering at the excitation wavelength was smaller than 0.1 while maintaining a good signal/noise ratio (3, 5, or 10 mm).
(§2) The increase in fluorescence of the NBD amphiphiles when associated with the model membranes was well described by a simple partition (Equation (S3)). The low affinity of the less lipophilic amphiphiles for the native membranes required the use of high membrane concentrations, and the fluorescence was measured with the plate reader SpectraMax iD5 (Molecular Devices, Berkshire, UK), where the reading setup is not very sensitive to scatter. To guarantee that the high scatter intensity was not leading to artifacts in the measured fluorescence intensity of NBD–C4, titrations of NBD-C6 and NBD–C8 were also performed in the same plate. For these two latter amphiphiles, the results obtained for the partition coefficient were similar to those obtained for experiments with low scatter intensity. A small decrease in the fluorescence intensity from NBD–C8 was nevertheless observed at very high scatter intensities (OD ≥ 0.5), which was used to correct the signal from the less lipophilic amphiphiles, see Supplementary Information (Figure S5 and Equation (S4)). The molar volume considered for the lipid was 0.8 dm^3/mol, and 1.2 g/mL was considered for the density of the membrane proteins.
S3 – Partition of the NBD amphiphiles to lipid bilayers and native membranes The fluorescence increase that accompanies the association of the NBD amphiphiles with the model membra nes was well defined by a simple partition, equation S3. […]
where IfW and If M are respec ti vel y the fluorescence intensity when all fluorescent amphiphile is in the aqueous phase and ass oci ated with the membranes, LbK is the partition co eff icient P between the aqueous and the lipid bilayer, V is the molar vo l u m e of the lipid when in the lipid L bi l ayer, and [L] is the lipid concentration.
To characterize the association of the NBD amphiphiles with the native membranes the whole membrane vo lume was considere d, including the lipid bilayer and the membrane proteins. For the ca se of the less lipophilic amphiphiles NBD‐C4 and NBD‐C6, a sig nif ica nt scatter from the […]
both to the larger size of the vesicles (ca 1 µm diameter, [1]) and to the high refractive index of the native membranes. The magnitude of the scatter effect was quantified through the best fit […]
partition to the membranes at co n ce ntrations where scatter is not significant. The modified […]
where s is the scatter correction factor for a given concentration of native membranes, If W and IfM are respectively the fluorescence intensity when all fluorescent amphiphile is in the aqueous phase and associated with the membranes, WMK → is the partition coefficient between the P aqueous phase and the native membrane, V is the molar volume of the lipid when in the L membrane and [L] the molar concentration of the membrane lipids, V is the vo lume occupied P by 1 g of membrane protein (assuming a density of 1.2 g/mL) and [P] is the protein concentration in units of ma ss per volume.
Typical results obtained for the variation of the fluorescence intensity at 540 nm of the NBD‐Cn fluorophores equilibrated with increasing concentrations of native membranes, are shown in figure S3. The fluorescence intensity was measured in black 96 well plates with the plate reader […]
SpectraMax iD5. The NBD‐Cn concentrations we re 0.5 µM for NBD‐C8 , 1 µM for NBD‐C6, and 2 µM for NBD‐C4, and the total volume per well was 150 µL. […]

P–gp = assay: Partition coefficient to membrane protein from Equations (1) and (2), binding to P–gp only; format: physicochemical, mouse; settings: binding to the protein P–gp only
Excerpt: (§3) From the partition coefficient obtained for the native membranes, KPW→M , and that for the model lipid bilayers, KPW→Lb , one can calculate the partition coefficient between the aqueous phase and the proteins in the membrane, KPW→P , and from the lipid bilayer to the proteins, KPLb→P , Equations (1) and (2), [40]. (1) KPW→M VM=KPW→PVP+KPW→Lb VLb (2) KPLb→P=KPW→P/KPW→Lb
(§4) In Equation (1) it is necessary to include the volume occupied by the proteins, and the values obtained will, therefore, depend on whether it is considered that the amphiphile may interact with all proteins in the membrane or with P–gp only.

[2] = Partition coefficient to membrane proteins from Equations (1) and (2), all membrane proteins with equal affinity; format: physicochemical, High-Five insect cells; settings: binding to all membrane proteins with equal affinity
Excerpt: as §3, §4

[3] = Association (partition) with model membranes (LUVs POPE:POPC:POPS 45:35:20); format: physicochemical; settings: aqueous phase to model lipid bilayer
Procedure: The model membranes with a phospholipid composition representative of that of the native membranes (POPE:POPC:POPS 45:35 20) were prepared from stock solutions of the required lipids in chloroform or in chloroform/methanol (87/13, v/v), as described before. The solvent-free lipid residue was hydrated at 40 °C with previously heated simplified ATPase assay buffer (with all components except Ouabain and DTT). Large Unilamelar Vesicles were prepared by extrusion through two-staked polycarbonate filters (100 nm pore diameter), and the size of the LUVs was analyzed by dynamic light scattering (Zetasizer Nano ZS, Malvern, UK) being close to the filter pore size.
as §1, §2
S3 – Partition of the NBD amphiphiles to lipid bilayers and native membranes
The fluorescence increase that accompanies the association of the NBD amphiphiles with the
model membra nes was well defined by a simple partition, equation S3.
If 1540 nm Lb= + S3, KVL[]
where IfW and If M are respec ti vel y the fluorescence intensity when all fluorescent amphiphile is
in the aqueous phase and ass oci ated with the membranes, LbK is the partition co eff icient P
between the aqueous and the lipid bilayer, V is the molar vo l u m e of the lipid when in the lipid L
bi l ayer, and [L] is the lipid concentration. […]

[4] = cited from earlier work
[5] = e.g. 1 M trehalose; cited from earlier work
mP–gp [6] = molecular target: T1, mP–gp (Mus musculus, UniProt P21447); parameters: method as in PMID 28283574; settings: positive control; read-out: KI, inhibition of IAAP binding; cited from earlier work
T1 construct: made in house; host or cells: High-Five insect cells (Invitrogen), recombinant baculovirus; total membrane vesicles
T1 sequence (P21447 whole entry): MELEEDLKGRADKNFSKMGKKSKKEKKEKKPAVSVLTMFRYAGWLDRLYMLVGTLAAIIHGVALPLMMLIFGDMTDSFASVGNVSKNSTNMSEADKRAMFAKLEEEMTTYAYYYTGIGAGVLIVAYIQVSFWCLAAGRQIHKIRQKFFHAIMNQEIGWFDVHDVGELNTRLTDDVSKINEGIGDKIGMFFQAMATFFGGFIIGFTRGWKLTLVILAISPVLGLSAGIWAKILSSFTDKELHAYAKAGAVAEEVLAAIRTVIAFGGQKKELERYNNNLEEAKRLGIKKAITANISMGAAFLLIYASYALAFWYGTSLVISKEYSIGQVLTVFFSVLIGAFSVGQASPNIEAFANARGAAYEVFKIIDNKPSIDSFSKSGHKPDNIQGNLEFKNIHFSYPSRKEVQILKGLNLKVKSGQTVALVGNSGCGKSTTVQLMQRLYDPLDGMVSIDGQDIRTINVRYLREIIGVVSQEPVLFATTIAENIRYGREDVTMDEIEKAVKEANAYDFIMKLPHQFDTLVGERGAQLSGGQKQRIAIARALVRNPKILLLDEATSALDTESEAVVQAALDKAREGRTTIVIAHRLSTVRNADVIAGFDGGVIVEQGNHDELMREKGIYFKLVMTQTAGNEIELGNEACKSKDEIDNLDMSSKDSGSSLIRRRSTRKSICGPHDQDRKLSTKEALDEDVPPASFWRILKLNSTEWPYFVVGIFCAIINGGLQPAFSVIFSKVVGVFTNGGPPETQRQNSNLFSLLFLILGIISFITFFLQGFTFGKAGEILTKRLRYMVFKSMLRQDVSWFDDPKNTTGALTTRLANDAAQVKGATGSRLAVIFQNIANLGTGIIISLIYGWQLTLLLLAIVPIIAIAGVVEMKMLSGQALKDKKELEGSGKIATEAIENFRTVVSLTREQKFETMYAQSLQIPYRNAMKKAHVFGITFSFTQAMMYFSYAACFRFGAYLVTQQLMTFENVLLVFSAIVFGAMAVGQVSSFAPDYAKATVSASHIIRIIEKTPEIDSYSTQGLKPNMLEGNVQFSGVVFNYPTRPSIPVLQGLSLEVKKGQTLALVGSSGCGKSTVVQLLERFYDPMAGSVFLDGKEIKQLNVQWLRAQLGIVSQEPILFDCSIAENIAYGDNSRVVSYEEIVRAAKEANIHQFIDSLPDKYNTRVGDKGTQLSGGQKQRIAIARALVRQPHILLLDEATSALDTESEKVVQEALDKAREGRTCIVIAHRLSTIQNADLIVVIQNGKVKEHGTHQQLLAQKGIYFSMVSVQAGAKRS

mP–gp [7] = molecular target: T1, mP–gp; assay: Photolabeling of P–gp with [125I]-IAAP / IAAP displacement; format: binding; settings: concentration of 2 μM, positive control
Procedure: The native membranes of High-Five insect cells expressing mP–gp (1.0 mg/mL) were incubated at room temperature with the indicated concentrations of the inhibitor for 5 min. IAAP (5 to 7 nM) was later added, and the reaction mixture was further incubated for 5 min under subdued light. The samples were photocross-linked with 366 nm UV light for 10 min at room temperature, followed by electrophoresis and quantification, as described previously. The raw data are shown in the Supplementary Information (Figure S4). The results were first analyzed with the usual equation, considering the total concentration of IAAP and NBD amphiphile, as well as competitive inhibition of IAAP binding, see Supplementary Information (Equation (S2)). The dissociation constant considered for IAAP was taken from the literature, 412 nM [15]. The results were also analyzed with a formalism derived in this manuscript considering the distribution of the NBD amphiphile in the distinct environments (aqueous phase, lipid bilayer, and P–gp), the distribution of IAAP between the aqueous media and P–gp, and several equal and independent binding sites in P–gp’s binding pocket, Equation (10).
In this assay, in addition to the binding of the NBD amphiphiles to P–gp binding pocket, it is also necessary to consider the binding of IAAP. The concentration of IAAP used in the assay (5 nM) is several orders of magnitude smaller than that of the amphiphiles in study, and it is also smaller than the total concentration of P–gp (59 nM). Therefore, Equation (8) may be used to calculate the concentration of free ligand and protein. The fraction of IAAP bound to P–gp may then be calculated from Equation (10), where P^* is the concentration of P–gp available for IAAP binding. (10) IP/IT=−b−b^2−4ac/2aa=1; b=−1+KdIAAP/IT+P^*/IT; c=P^*/IT
The number of binding sites in P–gp binding pocket was varied from 1 to 5, and three situations were considered in the analysis: (i) full inhibition of IAAP binding when at least one NBD amphiphile is in the P–gp binding pocket ( i≥1 ), corresponding to P^*=P; (ii) inhibition of IAAP binding only when P–gp is fully saturated ( i=n ), corresponding to P^*=P+∑i=1n−1PLi; and (iii) an intermediate situation with IAAP displacement for i≥n−1 , corresponding to P^*=P+∑i=1n−2PLi .
The displacement of IAAP from P–gp binding pocket was calculated from Equation (11), where IP0 is the concentration of IAAP bound to P–gp in the absence of the NBD amphiphiles. (11) IAAP displacement %=100IP0−IP/IP0

With `CCCCCCNc1ccc([N+](=O)[O-])c2nonc12` [NBD-C6] the “LogKP, association with the native membranes” value ([1]; 37 °C, simplified ATPase assay buffer) was 3.20 ± 0.26, the KPW→M ([1]; membrane volume = phospholipid bilayer and P–gp (binding to the protein P–gp only)) was 3.9 × 10^3 and the KPW→M ([1]; membrane volume = phospholipid bilayer and all proteins (binding to all membrane proteins with equal affinity)) was 1.6 × 10^3. The KPW→P (P–gp; aqueous phase to protein) was 1.0 × 10^5, the KPLb→P (P–gp; lipid bilayer to protein) was 43 and the KPW→P ([2]; aqueous phase to proteins) was 1.0 × 10^3. For the same compound, the KPLb→P ([2]; lipid bilayer to proteins) was 0.43, the KPW→Lb ([3]; section: binding to all membrane proteins with equal affinity) was 2.4 × 10^3 and the KPW→Lb ([3]; section: binding to the protein P–gp only) was 2.4 × 10^3. For the same compound, the “LogKP, association with POPC bilayers” value [4] was 3.79.

In the case of `CCCCCCCCCCNc1ccc([N+](=O)[O-])c2nonc12` [NBD-C10], the “increase of CAC in the presence of co-solvent” value [5] is given as 6 fold.

In the case of `COc1cc2c(cc1OC)CN(CCc1ccc(NC(=O)c3cc(OC)c(OC)cc3NC(=O)c3cnc4ccccc4c3)cc1)CC2` [Tariquidar, reference compound], the Ki (mP–gp [6]) is listed as 0.2 µM and the “Inhibition of IAAP binding” value (mP–gp [7]) is listed as “efficient inhibition of IAAP binding”.

— paper PMC9862096, “Interaction of a Homologous Series of Amphiphiles with P-glycoprotein in a Membrane Environment—Contributions of Polar and Non-Polar Interactions” (Pharmaceutics, 2023)
